Like-named read-outs stand apart in the source and are kept apart here.
Assays:
[1] = Polymorphic acetylation in humans; format: in vivo; conditions: conclusion from urinary excretion in 10 phenotyped volunteers
bovine adrenal cells = system: bovine adrenal cells; set-up: method as in Coombes et al., 1980; conditions: bovine adrenal cells in culture, ref Coombes et al., 1980, cited from earlier work; for Glucocorticoid production, % of the resting levels: 10 ug/ml
[2] = set-up: method as in Coombes et al. (1980); conditions: after AG, ref Coombes et al. (1980), cited from earlier work
[3] = cited from earlier work
mammary carcinoma = system: mammary carcinoma; set-up: method as in Smith et al., 1978; conditions: postmenopausal women; ref Smith et al., 1978; cited from earlier work
[4] = set-up: method as in Douglas & Nicholls, 1972; conditions: humans, urine; ref Douglas & Nicholls, 1972; cited from earlier work
[5] = 24 h urinary excretion of AG and metabolites in volunteers given oral AG; conditions: oral AG 250 mg, 24 h urine, excreted as the named substance; for Percentage of the administered dose excreted in the urine during 24 h, mean, rapid (fast) acetylators: rapid acetylators of sulphadimidine (5 volunteers); for Percentage of the administered dose excreted in the urine during 24 h, mean, slow acetylators: slow acetylators of sulphadimidine (5 volunteers)
[6] = 6 h urine after sulphadimidine
[7] = set-up: method as in Testa & Jenner, 1976; conditions: ref Testa & Jenner, 1976; cited from earlier work
steroidogenesis = conditions: no reference given; cited from earlier work
[8] = set-up: method as in Hoffman & Tagmann, 1954; conditions: ref Hoffman & Tagmann, 1954; cited from earlier work

CCC1(c2ccc(N)cc2)CCC(=O)NC1=O (stereo not shown) [AG, aminoglutethimide]
Acetylation polymorphism in humans [1]: polymorphically acetylated | Glucocorticoid production, % of the resting levels (bovine adrenal cells): 833% | Plasma level at 0.5 h, mean, slow acetylators ([2]; 4 slow acetylators): 1140 ng/mL | Plasma level at 0.5 h, mean, rapid acetylators ([2]; 5 rapid acetylators): 960 ng/mL | Plasma level at 2 h, mean, rapid acetylators ([2]; 5 rapid acetylators): 0 to 60000 ng/mL | Side effects in patients ([3]; patients, ref Smith et al., 1978): skin rash and lethargy | Efficacy in the treatment of mammary carcinoma (mammary carcinoma): effective agent

CCC1(c2ccc(NC(C)=O)cc2)CCC(=O)NC1=O (stereo not shown) [N-acetylAG, N-Acetylaminoglutethimide]
Glucocorticoid production, % of the resting levels (bovine adrenal cells): 58% | Inhibition of steroidogenesis (ability to reduce corticosteroid output) (bovine adrenal cells; compared with AG): poor inhibitor | Plasma level at 8 h, mean, slow acetylators ([2]; 4 slow acetylators): 0 to 37000 ng/mL | Percentage of the administered dose of AG accounted for as urinary metabolite [4]: 4-25% | Percentage of the administered dose excreted in the urine during 24 h, mean, rapid (fast) acetylators [5]: 8.8% | Percentage of the administered dose excreted in the urine during 24 h, mean, slow acetylators [5]: 3.9%

CC(=O)Nc1ccc(S(=O)(=O)Nc2nc(C)cc(C)n2)cc1 [N-acetylsulphadimidine]
Percentage of the excreted dose as N-acetylsulphadimidine, rapid acetylators ([6]; rapid acetylators): 89-96% | Percentage of the excreted dose as N-acetylsulphadimidine, slow acetylators ([6]; slow acetylators): 62-68%

CCC1(c2ccc(NC=O)cc2)CCC(=O)NC1=O (stereo not shown) [N-formylAG, N-Formylaminoglutethimide]
Percentage of the administered dose excreted in the urine during 24 h, mean, rapid (fast) acetylators [5]: 0.465% | Percentage of the administered dose excreted in the urine during 24 h, mean, slow acetylators [5]: 0.475%

Nc1ccc(S(=O)(=O)c2ccc(N)cc2)cc1 [diaminodiphenylsulphone]
Acetylation polymorphism in humans [7]: polymor- phically acetylated

CCC1(c2ccccc2)CCC(=O)NC1=O (stereo not shown) [glutethimide]
Inhibitory effect on steroidogenesis (steroidogenesis): little inhibitory effect | Hypnotic activity [8]: powerful hypnotic

NNc1nncc2ccccc12 [hydralazine]
Adverse side-effect induced ([3]; preponderantly in slow acetylators, ref Perry et al., 1970): lupus erythematosus

NNC(=O)c1ccncc1 [isoniazid]
Acetylation polymorphism in humans [7]: polymor- phically acetylated

CCC1(c2ccc([N+](=O)[O-])cc2)CCC(=O)NC1=O (stereo not shown) [nitroG, Nitroglutethimide]
Percentage of the administered dose excreted in the urine during 24 h, mean, rapid (fast) acetylators [5]: 0.047% | Percentage of the administered dose excreted in the urine during 24 h, mean, slow acetylators [5]: 0.10%

Cc1cc(C)nc(NS(=O)(=O)c2ccc(N)cc2)n1 [sulphamethazine]
Acetylation polymorphism in humans [7]: polymor- phically acetylated

Reference: publication PMC2011122 (British Journal of Cancer, 1982)
